Experimental data taken from patent publication US10301280B2 (Plexxikon Inc., priority 2012, dated 2019).

The compounds below were run on BaF3-FL KIT D816V or BaF3-FL KIT V560G/D816V cell line (assay: Cell-based assays of c-Kit mutant kinase activity (cell growth, ATPlite)). Details: at least one of the c-kit cell assays of Example 26.
Method in brief: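 IC50 derived from ATP-content luminescence (ATPlite) after three-day compound exposure at 37° C., 5% CO2. Cells: BaF3 rendered growth-dependent on full-length human KIT D816V or V560G/D816V, 1×10^4 per well, RPMI plus 10% FBS; 8 points, 1:3 steps, maximum 10 μM final, 0.2% DMSO.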

IC50, < 10 µM:
CCOc1cc(-c2cc3cc(NC(=O)c4n[nH]c(C)c4C)cnc3[nH]2)ccn1 [P-2247, N-(2-(2-ethoxypyridin-4-yl)-1H-pyrrolo[2,3-b]pyridin-5-yl)-4,5-dimethyl-1H-pyrazole-3-carboxamide]
Cc1[nH]nc(C(=O)Nc2cnc3[nH]c(-c4ccnc(OC(C)C)c4)cc3c2)c1C [P-2248, N-(2-(2-isopropoxypyridin-4-yl)-1H-pyrrolo[2,3-b]pyridin-5-yl)-4,5-dimethyl-1H-pyrazole-3-carboxamide]
COc1nccc(-c2cc3cc(NC(=O)c4n[nH]c(C)c4C)cnc3[nH]2)c1Cl [P-2249, N-(2-(3-chloro-2-methoxypyridin-4-yl)-1H-pyrrolo[2,3-b]pyridin-5-yl)-4,5-dimethyl-1H-pyrazole-3-carboxamide]
Cc1[nH]nc(C(=O)Nc2cnc3[nH]c(-c4ccncc4Cl)cc3c2)c1C [P-2250, N-(2-(3-chloropyridin-4-yl)-1H-pyrrolo[2,3-b]pyridin-5-yl)-4,5-dimethyl-1H-pyrazole-3-carboxamide]
Cc1cnccc1-c1cc2cc(NC(=O)c3n[nH]c(C)c3C)cnc2[nH]1 [P-2251, 4,5-dimethyl-N-(2-(3-methylpyridin-4-yl)-1H-pyrrolo[2,3-b]pyridin-5-yl)-1H-pyrazole-3-carboxamide]
Cc1[nH]nc(C(=O)Nc2cnc3[nH]c(-c4cncc(F)c4)cc3c2)c1C [P-2253, N-(2-(5-fluoropyridin-3-yl)-1H-pyrrolo[2,3-b]pyridin-5-yl)-4,5-dimethyl-1H-pyrazole-3-carboxamide]
Cc1[nH]nc(C(=O)Nc2cnc3[nH]c(-c4cncc(C(F)(F)F)c4)cc3c2)c1C [P-2254, 4,5-dimethyl-N-(2-(5-(trifluoromethyl)pyridin-3-yl)-1H-pyrrolo[2,3-b]pyridin-5-yl)-1H-pyrazole-3-carboxamide]
Cc1[nH]nc(C(=O)Nc2cnc3[nH]c(-c4ccc(C5CC5)nc4)cc3c2)c1C [P-2255, N-(2-(6-cyclopropylpyridin-3-yl)-1H-pyrrolo[2,3-b]pyridin-5-yl)-4,5-dimethyl-1H-pyrazole-3-carboxamide]
CCc1cncc(-c2cc3cc(NC(=O)c4n[nH]c(C)c4C)cnc3[nH]2)c1 [P-2256, N-(2-(5-ethylpyridin-3-yl)-1H-pyrrolo[2,3-b]pyridin-5-yl)-4,5-dimethyl-1H-pyrazole-3-carboxamide]
Cc1[nH]nc(C(=O)Nc2cnc3[nH]c(-c4ccccc4C(F)F)cc3c2)c1C [P-2257, N-(2-(2-(difluoromethyl)phenyl)-1H-pyrrolo[2,3-b]pyridin-5-yl)-4,5-dimethyl-1H-pyrazole-3-carboxamide]
Cc1cc(Cl)ccc1-c1cc2cc(NC(=O)c3n[nH]c(C)c3C)cnc2[nH]1 [P-2258]
Cc1cc(F)ccc1-c1cc2cc(NC(=O)c3n[nH]c(C)c3C)cnc2[nH]1 [P-2259, N-(2-(4-fluoro-2-methylphenyl)-1H-pyrrolo[2,3-b]pyridin-5-yl)-4,5-dimethyl-1H-pyrazole-3-carboxamide]
Cc1[nH]nc(C(=O)Nc2cnc3[nH]c(-c4ccc(F)cc4F)cc3c2)c1C [P-2260, N-(2-(2,4-difluorophenyl)-1H-pyrrolo[2,3-b]pyridin-5-yl)-4,5-dimethyl-1H-pyrazole-3-carboxamide]
Cc1[nH]nc(C(=O)Nc2cnc3[nH]c(-c4ccc(F)c(C#N)c4F)cc3c2)c1C [P-2261, N-(2-(3-cyano-2,4-difluorophenyl)-1H-pyrrolo[2,3-b]pyridin-5-yl)-4,5-dimethyl-1H-pyrazole-3-carboxamide]
Cc1[nH]nc(C(=O)Nc2cnc3[nH]c(-c4ccc(F)c(C)c4C)cc3c2)c1C [P-2262, N-(2-(4-fluoro-2,3-dimethylphenyl)-1H-pyrrolo[2,3-b]pyridin-5-yl)-4,5-dimethyl-1H-pyrazole-3-carboxamide]
Cc1[nH]nc(C(=O)Nc2cnc3[nH]c(-c4ccccc4OC(F)F)cc3c2)c1C [P-2263, N-(2-(2-(difluoromethoxy)phenyl)-1H-pyrrolo[2,3-b]pyridin-5-yl)-4,5-dimethyl-1H-pyrazole-3-carboxamide]
Cc1[nH]nc(C(=O)Nc2cnc3[nH]c(-c4cccc(F)c4OC(F)F)cc3c2)c1C [P-2264, N-(2-(2-(difluoromethoxy)-3-fluorophenyl)-1H-pyrrolo[2,3-b]pyridin-5-yl)-4,5-dimethyl-1H-pyrazole-3-carboxamide]
Cc1[nH]nc(C(=O)Nc2cnc3[nH]c(C4=CCOCC4)cc3c2)c1C [P-2265, N-(2-(3,6-dihydro-2H-pyran-4-yl)-1H-pyrrolo[2,3-b]pyridin-5-yl)-4,5-dimethyl-1H-pyrazole-3-carboxamide]
Cc1[nH]nc(C(=O)Nc2cnc3[nH]c(C4=CC(C)(C)NC(C)(C)C4)cc3c2)c1C [P-2266, 4,5-dimethyl-N-(2-(2,2,6,6-tetramethyl-1,2,3,6-tetrahydropyridin-4-yl)-1H-pyrrolo[2,3-b]pyridin-5-yl)-1H-pyrazole-3-carboxamide]
Cc1[nH]nc(C(=O)Nc2cnc3[nH]c(-c4cccc5c4OC(F)(F)O5)cc3c2)c1C [P-2267, N-(2-(2,2-difluorobenzo[d][1,3]dioxol-4-yl)-1H-pyrrolo[2,3-b]pyridin-5-yl)-4,5-dimethyl-1H-pyrazole-3-carboxamide]
Cn1ncc2c(C(=O)Nc3cnc4[nH]c(-c5ccccc5)cc4c3)cccc21 [P-2298, 1-methyl-N-(2-phenyl-1H-pyrrolo[2,3-b]pyridin-5-yl)indazole-4-carboxamide]
O=C(Nc1cnc2[nH]c(-c3ccccc3)cc2c1)c1cccc2[nH]ccc12 [P-2299, N-(2-phenyl-1H-pyrrolo[2,3-b]pyridin-5-yl)-1H-indole-4-carboxamide]
O=C(Nc1cnc2[nH]c(-c3ccccc3)cc2c1)c1cccc2[nH]cnc12 [P-2300, N-(2-phenyl-1H-pyrrolo[2,3-b]pyridin-5-yl)-1H-benzimidazole-4-carboxamide]
Cc1cc2cc(NC(=O)c3[nH]nc(C)c3C)cnc2[nH]1 [P-2302, 3,4-dimethyl-N-(2-methyl-1H-pyrrolo[2,3-b]pyridin-5-yl)-1H-pyrazole-5-carboxamide]
O=C(O)c1ccc(C(=O)Nc2cnc3[nH]c(-c4ccccc4)cc3c2)cc1 [P-2303, 4-[(2-phenyl-1H-pyrrolo[2,3-b]pyridin-5-yl)carbamoyl]benzoic acid]
Cc1n[nH]c(C(=O)N(C)c2cnc3[nH]c(-c4ccccc4)cc3c2)c1C [P-2304, N,3,4-trimethyl-N-(2-phenyl-1H-pyrrolo[2,3-b]pyridin-5-yl)-1H-pyrazole-5-carboxamide]
Cc1n[nH]c(C(=O)Nc2cnc3[nH]c(-c4cccc5c4OCCO5)cc3c2)c1C [P-2305, N-[2-(2,3-dihydro-1,4-benzodioxin-5-yl)-1H-pyrrolo[2,3-b]pyridin-5-yl]-3,4-dimethyl-1H-pyrazole-5-carboxamide]
Cc1n[nH]c(C(=O)Nc2cnc3[nH]c(-c4cnn(C5CCN(C(=O)OC(C)(C)C)CC5)c4)cc3c2)c1C [P-2306, tert-butyl 4-[4-[5-[(3,4-dimethyl-1H-pyrazole-5-carbonyl)amino]-1H-pyrrolo[2,3-b]pyridin-2-yl]pyrazol-1-yl]piperidine-1-carboxylate]
Cc1n[nH]c(C(=O)Nc2cnc3[nH]c(C4=CCCCC4)cc3c2)c1C [P-2307, N-[2-(cyclohexen-1-yl)-1H-pyrrolo[2,3-b]pyridin-5-yl]-3,4-dimethyl-1H-pyrazole-5-carboxamide]
